US12077534B2, “Aza-heterobicyclic inhibitors of MAT2A and methods of use for treating cancer” (Les Laboratoires Servier SAS, priority 2018, dated 2024)

How the values were obtained:
MAT2A homodimer = target: T1, MAT2A homodimer (Homo sapiens, UniProt P31153); assay: MAT2A biochemical assay (phosphate release, PiColorLock Gold); conditions: recombinant MAT2A homodimer, 60 min pre-incubation, 25° C.; read-out: Enzyme Inhibition
T1 construct: inferred from Ni sepharose purification and imidazole elution; made in house; host or cells: SF9 insect cells, recombinant baculovirus (Bac to Bac, pFASTBAC1)
How it was run: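 Baculovirus/Sf9-expressed, Ni-purified MAT2A homodimer (4 µg/mL in pH 8.0 Tris/KCl/MgCl2 buffer) preincubated 60 min at 25 °C with compound (2% DMSO final). Substrate mix of 500 µM ATP and 400 µM L-methionine added; 60 min at 25 °C; released phosphate quantified colorimetrically against a phosphate standard curve.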

HCT116 MTAP−/− = assay: Inhibition of cellular proliferation (Cell Titer Glo), HCT116 MTAP-/-; type: cell-based; conditions: Homo sapiens, HCT-116, 96 h, 4 days, read-out: 4 Day Relative Growth Inhibition (MTAP −/−)
How it was run: (§1)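 Isogenic HCT116 MTAP+/+ and MTAP−/− cells treated 24 h after plating with 10-point 3-fold dilutions, then grown 4 days at 37 °C/5% CO2. ATP content read by Cell Titer Glo luminescence, blank-subtracted and normalized to 0.2% DMSO control, plotted as percent proliferation change versus log molar concentration.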

[1] = system: MAT2A activity (SAM) in HCT116 cells with deleted MTAP gene; assay: Cellular assay of target engagement (SAM) by LC-MS/MS; type: cell-based; conditions: Homo sapiens, HCT-116; HCT116 MTAP −/−, 72 hrs; read-out: Cell 72 h SAM Inhibition (MTAP −/−)
How it was run: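 HCT116 MTAP-deleted cells treated with 10-point 3-fold DMSO serial dilutions of compound for 72 hrs at 37° C. Cells lysed in cold 80% methanol/acetic acid extraction buffer with d3-SAM internal standard; SAM quantified by LC-MS/MS (MRM m/z 399.2→250.1).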

HCT116 MTAP+/+ = assay: Inhibition of cellular proliferation (Cell Titer Glo), HCT116 MTAP+/+; type: cell-based; conditions: Homo sapiens, HCT-116, 96 h, 4 days, read-out: 4 Day Relative Growth Inhibition (MTAP +/+)
How it was run: as §1

T1 sequence (P31153 whole entry): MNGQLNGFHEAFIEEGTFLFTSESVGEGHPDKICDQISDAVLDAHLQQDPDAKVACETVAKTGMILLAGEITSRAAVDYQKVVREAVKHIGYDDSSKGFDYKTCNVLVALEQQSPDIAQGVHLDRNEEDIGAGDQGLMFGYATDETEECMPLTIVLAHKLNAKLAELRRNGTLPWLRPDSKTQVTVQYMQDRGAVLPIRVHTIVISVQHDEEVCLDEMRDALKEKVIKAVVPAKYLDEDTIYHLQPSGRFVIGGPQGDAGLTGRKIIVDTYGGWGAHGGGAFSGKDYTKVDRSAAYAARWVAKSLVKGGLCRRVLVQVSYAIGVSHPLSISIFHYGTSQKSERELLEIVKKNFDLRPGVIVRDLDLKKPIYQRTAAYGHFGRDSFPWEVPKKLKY

| IC50 (MAT2A homodimer) [nM] | IC50 (HCT116 MTAP−/−) [nM] | IC50 [1] [nM] | IC50 (HCT116 MTAP+/+) [nM] | Compound |
| --- | --- | --- | --- | --- |
| < 100 | < 100 | < 100 | ≥ 1000 | Cn1cc2cc(-n3nc4ccc(OCC(F)F)nc4c(-c4ccc(Br)cc4)c3=O)ccc2n1 [Example 200, 4-(4-bromophenyl)-6-(2,2-difluoroethoxy)-2-(2-methyl-2H-indazol-5-yl)pyrido[3,2-c]pyridazin-3(2H)-one] |
| < 100 | < 100 | < 100 | ≥ 1000 | O=c1c(-c2ccc(Br)cc2)c2nc(OCC(F)F)ccc2nn1-c1ccc2ncsc2c1 [Example 201, 2-(benzo[d]thiazol-6-yl)-4-(4-bromophenyl)-6-(2,2-difluoroethoxy)pyrido[3,2-c]pyridazin-3(2H)-one] |
| < 100 | < 100 | < 100 | ≥ 1000 | CC(C)Oc1ccc2nn(-c3ccc4ncsc4c3)c(=O)c(-c3ccc(Br)cc3)c2n1 [Example 202, 2-(benzo[d]thiazol-6-yl)-4-(4-bromophenyl)-6-isopropoxypyrido[3,2-c]pyridazin-3(2H)-one] |
| < 100 | < 100 | < 100 | 100 to 1000 | CN(C)c1c2cc(-n3nc4ccc(OCC(F)F)nc4c(-c4ccc(OC(F)F)cc4)c3=O)ccc2nn1C [Example 203, 6-(2,2-difluoroethoxy)-4-(4-(difluoromethoxy)phenyl)-2-(3-(dimethylamino)-2-methyl-2H-indazol-5-yl)pyrido[3,2-c]pyridazin-3(2H)-one] |
| < 100 | < 100 | < 100 | ≥ 1000 | CCCc1ccc2nn(-c3ccc4nn(C)cc4c3)c(=O)c(-c3ccc(OC(F)F)cc3)c2n1 [Example 205, 4-(4-(difluoromethoxy)phenyl)-2-(2-methyl-2H-indazol-5-yl)-6-propylpyrido[3,2-c]pyridazin-3(2H)-one] |
| < 100 | 100 to 1000 | 100 to 1000 | ≥ 1000 | Cn1cc2cc(-n3nc4ccc(OCC(F)F)nc4c(C4CCCCC4)c3=O)ccc2n1 [Example 206, 4-cyclohexyl-6-(2,2-difluoroethoxy)-2-(2-methyl-2H-indazol-5-yl)pyrido[3,2-c]pyridazin-3(2H)-one] |
| < 100 | 100 to 1000 | < 100 | ≥ 1000 | Cn1cc2cc(-n3nc4ccc(OCC(F)F)nc4c(-c4ccc(O)cc4)c3=O)ccc2n1 [Example 207, 6-(2,2-difluoroethoxy)-4-(4-hydroxyphenyl)-2-(2-methyl-2H-indazol-5-yl)pyrido[3,2-c]pyridazin-3(2H)-one] |
| < 100 | < 100 | < 100 | 100 to 1000 | CCc1c2cc(-n3nc4ccc(OCC(F)F)nc4c(-c4ccc(OC(F)F)cc4)c3=O)ccc2nn1C [Example 208, 6-(2,2-difluoroethoxy)-4-(4-(difluoromethoxy)phenyl)-2-(3-ethyl-2-methyl-2H-indazol-5-yl)pyrido[3,2-c]pyridazin-3(2H)-one] |
| < 100 | < 100 | < 100 | ≥ 1000 | Cn1cc2cc(-n3nc4c(CO)cc(OCC(F)F)nc4c(-c4ccc(OC(F)F)cc4)c3=O)ccc2n1 [Example 209, 6-(2,2-difluoroethoxy)-4-(4-(difluoromethoxy)phenyl)-8-(hydroxymethyl)-2-(2-methyl-2H-indazol-5-yl)pyrido[3,2-c]pyridazin-3(2H)-one] |
| < 100 | 100 to 1000 | < 100 | ≥ 1000 | Cn1cc2cc(-n3nc4c(C(F)F)cc(OCC(F)F)nc4c(-c4ccc(OC(F)F)cc4)c3=O)ccc2n1 [Example 210, 6-(2,2-difluoroethoxy)-4-(4-(difluoromethoxy)phenyl)-8-(difluoromethyl)-2-(2-methyl-2H-indazol-5-yl)pyrido[3,2-c]pyridazin-3(2H)-one] |
| < 100 | 100 to 1000 | 100 to 1000 | ≥ 1000 | CN(C)Cc1cc(OCC(F)F)nc2c(-c3ccc(OC(F)F)cc3)c(=O)n(-c3ccc4nn(C)cc4c3)nc12 [Example 211, 6-(2,2-difluoroethoxy)-4-(4-(difluoromethoxy)phenyl)-8-((dimethylamino)methyl)-2-(2-methyl-2H-indazol-5-yl)pyrido[3,2-c]pyridazin-3(2H)-one] |
| < 100 | < 100 | < 100 | 100 to 1000 | Cn1cc2cc(-n3nc4c(N)cc(OCC(F)F)nc4c(-c4ccc(OC(F)F)cc4)c3=O)ccc2n1 [Example 212, 8-amino-6-(2,2-difluoroethoxy)-4-(4-(difluoromethoxy)phenyl)-2-(2-methyl-2H-indazol-5-yl)pyrido[3,2-c]pyridazin-3(2H)-one] |
| 100 to 1000 | ≥ 1000 | > 1000 | ≥ 1000 | C#Cc1c(=O)n(-c2ccc3nn(C)cc3c2)nc2ccc(OCC(F)F)nc12 [Example 214, 6-(2,2-difluoroethoxy)-4-ethynyl-2-(2-methyl-2H-indazol-5-yl)pyrido[3,2-c]pyridazin-3(2H)-one] |
| < 100 | 100 to 1000 | > 1000 | ≥ 1000 | Cn1cc2cc(-n3nc4ccc(OCC(F)F)nc4c(C#Cc4cc[nH]n4)c3=O)ccc2n1 [Example 215, 4-((1H-pyrazol-3-yl)ethynyl)-6-(2,2-difluoroethoxy)-2-(2-methyl-2H-indazol-5-yl)pyrido[3,2-c]pyridazin-3(2H)-one] |
| < 100 | < 100 | < 100 | 100 to 1000 | CCOc1ccc2nn(-c3ccc4nn(C)cc4c3)c(=O)c(-c3ccc(OC(F)F)cc3)c2n1 [Example 217, 4-(4-(difluoromethoxy)phenyl)-6-ethoxy-2-(2-methyl-2H-indazol-5-yl)pyrido[3,2-c]pyridazin-3(2H)-one] |
| < 100 | < 100 | < 100 | ≥ 1000 | Cc1ccc(-c2c(=O)n(-c3ccc4nn(C)cc4c3)nc3ccc(NCC(F)(F)F)nc23)cn1 [Example 301, 2-(2-methyl-2H-indazol-5-yl)-4-(6-methylpyridin-3-yl)-6-((2,2,2-trifluoroethyl)amino)pyrido[3,2-c]pyridazin-3(2H)-one] |
| < 100 | < 100 | < 100 | ≥ 1000 | Cc1ccc(-c2c(=O)n(-c3ccc4nn(C)cc4c3)nc3ccc(OCC4CC4)nc23)cn1 [Example 302] |
| < 100 | < 100 | < 100 | ≥ 1000 | Cn1cc2cc(-n3nc4ccc(OCC5CC5)nc4c(-c4ccc(C5CC5)nc4)c3=O)ccc2n1 [Example 303] |
| < 100 | 100 to 1000 | < 100 | 100 to 1000 | O=c1c(-c2ccc(C3CC3)cc2)c2nc(OCC(F)F)ccc2nn1-c1ccc2ncsc2c1 [Example 304] |
| < 100 | < 100 | < 100 | ≥ 1000 | CCNc1ccc2nn(-c3ccc4nn(C)cc4c3)c(=O)c(-c3ccc(C)nc3)c2n1 [Example 305] |
| < 100 | < 100 | < 100 | ≥ 1000 | CCNc1ccc2nn(-c3ccc4nn(C)cc4c3)c(=O)c(-c3ccc(OC)nc3)c2n1 [Example 307] |
| < 100 | < 100 | < 100 | ≥ 1000 | CCNc1ccc2nn(-c3ccc4nn(C)cc4c3)c(=O)c(-c3ccc(C4CC4)nc3)c2n1 [Example 309] |
| < 100 | < 100 | < 100 | ≥ 1000 | CCNc1ccc2nn(-c3ccc4nn(C)cc4c3)c(=O)c(-c3ccc(C(F)F)nc3)c2n1 [Example 310] |
| < 100 | < 100 | < 100 | 100 to 1000 | CCNc1ccc2nn(-c3ccc4nn(C)cc4c3)c(=O)c(-c3ccc(OC(F)F)nc3)c2n1 [Example 313] |
| < 100 | < 100 | < 100 | ≥ 1000 | Cn1cc2cc(-n3nc4ccc(NCC5CC5)nc4c(-c4ccc(C5CC5)nc4)c3=O)ccc2n1 [Example 315] |
| < 100 | < 100 | < 100 | ≥ 1000 | CCNc1ccc2nn(-c3ccc4nn(C)cc4c3)c(=O)c(-c3ccc(C(F)(F)F)nc3)c2n1 [Example 316] |
| < 100 | < 100 | < 100 | ≥ 1000 | Cn1cc2cc(-n3nc4ccc(NCC(F)(F)F)nc4c(-c4ccc(C(F)F)nc4)c3=O)ccc2n1 [Example 317] |
| < 100 | < 100 | < 100 | ≥ 1000 | Cc1ccc(-c2c(=O)n(-c3ccc4nn(C)cc4c3)nc3ccc(NCC(F)F)nc23)cn1 [Example 318] |
| < 100 | < 100 | < 100 | ≥ 1000 | Cn1cc2cc(-n3nc4ccc(NCC(F)F)nc4c(-c4ccc(C(F)F)nc4)c3=O)ccc2n1 [Example 319] |
